The target in assay [1] is T1, thrombopoietin receptor (human TPOR) (Homo sapiens, UniProt P40238).
T1 construct: gene MPL; MPL open reading frame (NM_005373.2) in pCMV-3Tag-3a, expressed in BaF3 and 32D cells
T1 sequence (P40238 26-635): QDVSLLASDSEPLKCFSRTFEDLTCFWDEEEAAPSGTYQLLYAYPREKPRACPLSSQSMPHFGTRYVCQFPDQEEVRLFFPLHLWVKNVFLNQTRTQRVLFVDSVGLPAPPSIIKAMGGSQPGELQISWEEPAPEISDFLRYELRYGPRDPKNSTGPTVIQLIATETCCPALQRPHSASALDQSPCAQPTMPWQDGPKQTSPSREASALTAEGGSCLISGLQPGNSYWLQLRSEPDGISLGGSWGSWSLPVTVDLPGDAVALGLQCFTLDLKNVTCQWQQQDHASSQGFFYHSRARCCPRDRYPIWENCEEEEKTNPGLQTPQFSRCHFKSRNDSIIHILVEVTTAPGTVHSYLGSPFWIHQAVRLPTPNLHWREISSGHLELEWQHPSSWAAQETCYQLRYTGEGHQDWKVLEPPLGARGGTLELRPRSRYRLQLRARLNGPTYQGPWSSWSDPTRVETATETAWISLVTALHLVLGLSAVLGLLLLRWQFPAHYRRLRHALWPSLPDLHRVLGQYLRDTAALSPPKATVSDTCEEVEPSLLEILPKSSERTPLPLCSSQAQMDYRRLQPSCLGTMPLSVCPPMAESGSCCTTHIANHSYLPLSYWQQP
The assay can be described thus: STAT5 phosphorylation Western blot in parental vs human TPOR-expressing murine cells, […]. Format: cell-based.

In another assay the target is T2, TET1 (Homo sapiens, UniProt Q8NFU7).
T2 construct: recombinant catalytic domain (Epigentek, E12002-1)
T2 sequence (Q8NFU7 1418-2136 limits assumed): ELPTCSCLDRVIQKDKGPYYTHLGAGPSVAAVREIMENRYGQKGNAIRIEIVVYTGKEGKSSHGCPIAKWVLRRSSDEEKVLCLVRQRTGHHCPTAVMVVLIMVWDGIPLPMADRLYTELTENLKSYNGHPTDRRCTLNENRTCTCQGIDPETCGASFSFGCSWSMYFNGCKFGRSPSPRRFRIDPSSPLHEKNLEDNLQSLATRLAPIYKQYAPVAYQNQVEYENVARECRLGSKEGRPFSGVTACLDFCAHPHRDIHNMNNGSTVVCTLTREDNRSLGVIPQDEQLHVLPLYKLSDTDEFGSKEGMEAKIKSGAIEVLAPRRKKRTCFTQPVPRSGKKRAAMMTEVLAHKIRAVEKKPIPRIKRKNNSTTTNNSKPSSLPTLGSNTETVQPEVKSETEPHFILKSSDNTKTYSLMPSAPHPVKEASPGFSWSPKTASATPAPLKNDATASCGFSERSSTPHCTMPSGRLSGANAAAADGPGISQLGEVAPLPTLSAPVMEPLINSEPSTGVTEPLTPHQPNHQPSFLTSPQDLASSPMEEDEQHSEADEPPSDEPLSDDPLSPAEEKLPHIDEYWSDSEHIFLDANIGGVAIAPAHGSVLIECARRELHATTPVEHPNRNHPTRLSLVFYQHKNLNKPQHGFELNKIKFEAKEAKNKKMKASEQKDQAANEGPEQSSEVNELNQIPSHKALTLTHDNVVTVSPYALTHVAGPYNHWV
The assay can be described thus: 5hmC ELISA with recombinant protein. The format is biochemical. On the technique in general: An ELISA detects its analyte on a solid surface through an enzyme-linked reagent.

Another assay concerns the target T3, TET3 (Homo sapiens, UniProt O43151).
T3 construct: recombinant catalytic domain (BPS Bioscience, 50163)
T3 sequence (O43151 850-1795 limits assumed): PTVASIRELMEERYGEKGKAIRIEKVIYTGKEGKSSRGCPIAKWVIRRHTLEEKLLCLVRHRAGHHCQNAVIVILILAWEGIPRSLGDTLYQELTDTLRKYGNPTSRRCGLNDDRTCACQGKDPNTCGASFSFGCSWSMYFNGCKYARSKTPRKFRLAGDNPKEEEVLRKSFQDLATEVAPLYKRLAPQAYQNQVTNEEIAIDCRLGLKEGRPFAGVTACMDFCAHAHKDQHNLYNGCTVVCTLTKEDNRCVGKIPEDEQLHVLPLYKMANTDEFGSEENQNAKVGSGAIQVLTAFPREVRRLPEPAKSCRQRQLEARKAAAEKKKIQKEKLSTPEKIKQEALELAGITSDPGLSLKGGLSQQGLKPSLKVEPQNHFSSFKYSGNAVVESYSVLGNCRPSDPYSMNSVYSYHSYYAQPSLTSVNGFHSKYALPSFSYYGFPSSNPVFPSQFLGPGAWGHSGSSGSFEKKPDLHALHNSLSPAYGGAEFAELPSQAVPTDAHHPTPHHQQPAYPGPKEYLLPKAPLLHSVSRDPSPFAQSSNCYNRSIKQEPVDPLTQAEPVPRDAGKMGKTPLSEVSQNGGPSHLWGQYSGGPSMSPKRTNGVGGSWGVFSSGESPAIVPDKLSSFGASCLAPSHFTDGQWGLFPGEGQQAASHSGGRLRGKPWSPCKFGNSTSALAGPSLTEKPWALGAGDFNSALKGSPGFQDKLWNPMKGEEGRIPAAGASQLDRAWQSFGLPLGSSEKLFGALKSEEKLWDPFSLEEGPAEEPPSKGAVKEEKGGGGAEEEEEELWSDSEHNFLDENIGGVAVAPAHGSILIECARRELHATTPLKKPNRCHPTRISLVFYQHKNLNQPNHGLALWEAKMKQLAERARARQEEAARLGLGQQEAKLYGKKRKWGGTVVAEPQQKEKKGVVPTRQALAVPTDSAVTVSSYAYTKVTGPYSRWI
Briefly: 5hmC ELISA with recombinant protein. Format: biochemical.

As for `O=C(Nc1nc(-c2cc(Cl)cs2)c(N2CCN(C3CCCCC3)CC2)s1)c1cnc(N2CCC(C(=O)O)CC2)c(Cl)c1` [Apag, avatrombopag], in assay [1], the “STAT5 phosphorylation Western blot in parental vs human TPOR-expressing murine c” value is “a chemically unrelated non-peptidyl TPOR agonist) all activated the JAK/STAT pathway to the same extent in these cells”.

One may read the IC50 as the point on the concentration scale where inhibition reaches its midpoint. Turning to `CC1=NN(c2ccc(C)c(C)c2)C(=O)/C1=N\Nc1cccc(-c2cccc(C(=O)O)c2)c1O` [Epag, Eltrombopag], the “STAT5 phosphorylation Western blot in parental vs human TPOR-expressing murine c” value in assay [1] is recorded as “Reconstitution of human TPOR in murine cells restored STAT5 phosphorylation without any measurable changes in the dioxygenase activity”. For the same molecule, the IC50 on TET1 worked out at 1 ± 0.1 µM; on TET3 it was 1.8 ± 0.1 µM.

For the origin of these results see publication PMC8843742, “Eltrombopag inhibits TET dioxygenase to contribute to hematopoietic stem cell expansion in aplastic anemia” (The Journal of Clinical Investigation, 2022).
